From patent US7135466B2 (Kirin Beer Kabushiki Kaisha, priority 1999, dated 2006)
pIC50: −log10 of the molar value. Read-outs that look alike come from different tables or passages of the source.

Molecular target: T1, PDGF-Ra (Homo sapiens, UniProt P16234)
T1 construct: host or cells: G-292 human osteosarcoma cells
Test: Inhibitory activity against PDGF-Ra phosphorylation by PDGF-AA stimulation using G292
Format: cell-based
Details: for pIC50: > means inhibition at indicated concentration not more than 50%, < and << not less than 50%, read-out: PDGF (E) IC50; for inhibition at 0.1 µM: G292, at 100 nM, read-out: PDGF (E) inhibition (%) at 100 nM
Experimental: Measurement of Inhibitory Activity Against PDGF-Ra Phosphorylation by PDGF-AA Stimulation Using G292
G-292 human osteosarcoma cells (Dainippon Pharmaceutical Co. Ltd.) were cultured in a DMEM medium (Dainippon Pharmaceutical Co. Ltd.) containing 10% FBS within an incubator containing 5% carbon dioxide until 80% confluent, and the cells were planted at 3×10^4 cells per well in 96-well flat-bottom plates in the same medium containing 0.1% FBS. After cultivation at 37° C. overnight, a solution of a test compound in dimethyl sulfoxide was added to each well, and a reaction was allowed to proceed at 37° C. for one hr.
After the reaction of the test compound, PDGF-AA (Upstate) was added to 50 ng/ml, and the cells were stimulated at 37° C. for 5 min. Thereafter, the cells were solubilized and shaken at room temperature for 20 min.
This solubilized cell solution was transferred to a 96-well plate coated with aniti-phosphotyrosine antibody PY-20, and a reaction was allowed to proceed at 4° C. overnight. Anti-PDGF-Ra (c-20) (Santa Cruz) was added as a primary antibody, and a reaction was allowed to proceed for one hr. GAR (Anti-rabbit Ig, horseradish peroxidase, Amersham) was then added as a secondary antibody, and a reaction was allowed to proceed for one hr. Color development was carried out using a color development kit for peroxidase (Sumitomo Bakelite Co., Ltd.), and the absorbance was measured at 450 nm.

[1] = figure within parentheses in >100( )

T1 sequence (P16234 24-1089): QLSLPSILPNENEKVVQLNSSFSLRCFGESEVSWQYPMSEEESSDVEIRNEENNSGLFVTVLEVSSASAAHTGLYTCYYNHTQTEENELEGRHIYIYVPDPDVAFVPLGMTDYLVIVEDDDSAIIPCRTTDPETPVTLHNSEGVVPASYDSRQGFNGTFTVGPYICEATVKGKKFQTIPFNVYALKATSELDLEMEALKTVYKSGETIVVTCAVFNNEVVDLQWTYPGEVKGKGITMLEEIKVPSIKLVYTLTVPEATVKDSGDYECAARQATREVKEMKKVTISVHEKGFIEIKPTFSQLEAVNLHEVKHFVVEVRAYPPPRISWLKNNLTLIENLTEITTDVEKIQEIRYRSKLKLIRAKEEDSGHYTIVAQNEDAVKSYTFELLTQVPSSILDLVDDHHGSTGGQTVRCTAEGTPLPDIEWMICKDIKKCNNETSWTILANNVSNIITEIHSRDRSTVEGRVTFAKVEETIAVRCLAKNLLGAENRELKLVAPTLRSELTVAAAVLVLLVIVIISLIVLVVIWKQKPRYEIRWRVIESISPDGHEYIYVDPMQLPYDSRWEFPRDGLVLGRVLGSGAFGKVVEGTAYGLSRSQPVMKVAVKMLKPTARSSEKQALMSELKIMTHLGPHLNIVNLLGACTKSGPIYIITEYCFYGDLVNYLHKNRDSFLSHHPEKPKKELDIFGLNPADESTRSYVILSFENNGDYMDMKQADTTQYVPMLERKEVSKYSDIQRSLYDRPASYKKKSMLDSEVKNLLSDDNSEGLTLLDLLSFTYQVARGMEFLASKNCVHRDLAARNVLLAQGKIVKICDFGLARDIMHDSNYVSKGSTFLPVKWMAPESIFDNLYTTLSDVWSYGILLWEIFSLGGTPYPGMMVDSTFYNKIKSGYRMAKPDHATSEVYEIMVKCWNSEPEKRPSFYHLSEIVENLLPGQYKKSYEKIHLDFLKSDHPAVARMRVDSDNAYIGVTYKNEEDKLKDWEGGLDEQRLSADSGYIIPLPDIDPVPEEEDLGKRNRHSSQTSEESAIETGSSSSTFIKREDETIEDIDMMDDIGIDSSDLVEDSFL

SMILES	pIC50	pIC50 (Pharmacological Test Example 1)	inhibition at 0.1 µM [1] [%]	inhibition at 0.1 µM (figure in parentheses in >100( )) [%]
COc1cc2ncnc(Oc3ccc(NC(=O)NCCN(C(C)C)C(C)C)c([N+](=O)[O-])c3)c2cc1OC [Example 659, N-[2-(Diisopropylamino)ethyl]-N′-{4-[(6,7-dimethoxy-4-quinazolinyl)oxy]-2-nitrophenyl}urea]	7.72	–	–	–
COc1cc2nccc(Oc3ccc(NC(=S)NC(=O)Cc4ccccc4[N+](=O)[O-])cc3)c2cc1OC [Example 735, N-{4-[(6,7-Dimethoxy-4-quinolyl)oxy]phenyl}-N′-[2-(2-nitrophenyl)acetyl]thiourea]	7.82	–	–	–
COc1cc2nccc(Oc3cc(C)c(NC(=O)OC(C)c4cccc(OC(F)(F)F)c4)cc3C)c2cc1OC (centres unmarked) [Example 182, 1-[3-(Trifluoromethoxy)phenyl]ethyl N-{4-[(6,7-dimethoxy-4-quinolyl)oxy]-2,5-dimethylphenyl}carbamate]	–	< 7.00	–	–
COc1cc2nccc(Oc3ccc(NC(=O)OC(C#N)c4ccccc4)c(C)c3C)c2cc1OC (centres unmarked) [Example 455, Cyano(phenyl)methyl N-{4-[(6,7-dimethoxy-4-quinolyl)oxy]-2,3-dimethylphenyl}carbamate]	7.11	–	–	–
COc1cc2nccc(Oc3cc(C)c(NC(=O)OCCCN4CCCCC4)cc3C)c2cc1OC [Example 414, 3-Piperidinopropyl N-{4-[(6,7-dimethoxy-4-quinolyl)oxy]-2,5-dimethylphenyl}carbamate]	< 7.00	–	27	–
COc1cc2nccc(Oc3ccc(NC(=S)NC(=O)c4cccc(F)c4)c(Cl)c3)c2cc1OC [Example 1163, N-{2-Chloro-4-[(6,7-dimethoxy-4-quinolyl)oxy]phenyl}-N′-(3-fluorobenzoyl)thiourea]	< 7.00	–	–	–
CCN(C(=O)OCc1ccccc1OC)c1ccc(Oc2ncnc3cc(OC)c(OC)cc23)cc1Cl [Example 485, 2-Methoxybenzyl N-{2-chloro-4-[(6,7-dimethoxy-4-quinazolinyl)oxy]phenyl}-N-ethylcarbamate]	< 7.00	–	35	–
COc1cc2nccc(Oc3cc(C)c(NC(=O)OCCN4C(=O)c5ccccc5C4=O)cc3C)c2cc1OC [Example 419, 2-(1,3-Dioxo-2,3-dihydro-1H-2-isoindolyl)ethyl N-{4-[(6,7-dimethoxy-4-quinolyl)oxy]-2,5-dimethylphenyl}carbamate]	< 7.00	–	47	–
COc1cc2nccc(Oc3ccc(NC(=O)OCCCCN(C)C)c(C)c3C)c2cc1OC [Example 193, 4-(Dimethylamino)butyl N-{4-[(6,7-dimethoxy-4-quinolyl)oxy]-2,3-dimethylphenyl}carbamate]	–	7.24	–	–
COc1cc2nccc(Oc3cc(C)c(NC(=S)NCCCN4CCCCC4C)cc3C)c2cc1OC (centres unmarked) [Example 554, N-{4-[(6,7-Dimethoxy-4-quinolyl)oxy]-2,5-dimethylphenyl}-N′-[3-(2-methylpiperidinyl)propyl]thiourea]	< 7.00	–	14	–
COc1cc2nccc(Oc3ccc(NC(=S)NC(=O)c4cccnc4)cc3)c2cc1OC [Example 1152, N-{4-[(6,7-Dimethoxy-4-quinolyl)oxy]phenyl}-N′-(3-pyridylcarbonyl)thiourea]	> 8.00	–	–	–
COc1cc2nccc(Oc3cc(C)c(NC(=O)OCN4C(=O)c5ccccc5C4=O)cc3C)c2cc1OC [Example 417, (1,3-Dioxo-2,3-dihydro-1H-2-isoindolyl)methyl N-{4-[(6,7-dimethoxy-4-quinolyl)oxy]-2,5-dimethylphenyl}carbamate]	< 7.00	–	42	–
COC(=O)COc1ccc(Oc2ncnc3cc(OC)c(OC)cc23)cc1 [Example 774, Methyl 2-{4-[(6,7-dimethoxy-4-quinazolinyl)oxy]phenoxy}acetate]	< 7.00	–	17	–
COc1cc2nccc(Oc3ccc(NC(=O)OCCC4CCCCC4)cc3)c2cc1OC [Example 353, 2-Cyclohexylethyl N-{4-[(6,7-dimethoxy-4-quinolyl)oxy]phenyl}carbamate]	–	> 8.00	–	–
COc1cc2nccc(Oc3ccc(NC(=S)NC(=O)C(C)(C)Oc4ccc(Cl)cc4)cc3Cl)c2cc1OC [Example 758, N-{3-Chloro-4-[(6,7-dimethoxy-4-quinolyl)oxy]phenyl}-N′-[2-(4-chlorophenoxy)-2-methylpropanoyl]thiourea]	< 7.00	–	18	–
COc1cc2ncnc(Oc3ccc(NC(=S)NCCNC(C)=O)cc3)c2cc1OC [Example 519]	< 7.00	–	22	–
CCCCOc1ccc(C(=O)NC(=S)Nc2ccc(Oc3ccnc4cc(OC)c(OC)cc34)c(Cl)c2)cc1 [Example 752, N-(4-Butoxybenzoyl)-N′-{3-chloro-4-[(6,7-dimethoxy-4-quinolyl)oxy]phenyl}thiourea]	< 7.00	–	37	–
COc1cc2nccc(Oc3ccc(NC(=S)NC(=O)C4(c5ccccc5)CC4)cc3Cl)c2cc1OC [Example 1194, N-{3-Chloro-4-[(6,7-dimethoxy-4-quinolyl)oxy]phenyl}-N′-[(1-phenylcyclopropyl)carbonyl]thiourea]	7.25	–	–	–
CCN(CC)C(C)CNC(=S)Nc1ccc(Oc2ccnc3cc(OC)c(OC)cc23)cc1 (centres unmarked) [Example 588, N-{4-[(6,7-Dimethoxy-4-quinolyl)oxy]phenyl}-N′-(2-diethylaminopropyl)thiourea]	7.44	–	–	–
COc1cc2nccc(Oc3ccc(NC(=S)NC(=O)Cc4cccs4)cc3)c2cc1OC [Example 1171, N-{4-[(6,7-Dimethoxy-4-quinolyl)oxy]phenyl}-N′-[2-(2-thienyl)acetyl]thiourea]	7.89	–	–	–
COc1cc2ncnc(Oc3ccc(NC(=S)NC(=O)c4cccc(F)c4)cc3)c2cc1OC [Example 1164, N-{4-[(6,7-Dimethoxy-4-quinazolinyl)oxy]phenyl}-N′-(3-fluorobenzoyl)thiourea]	> 8.00	–	–	–
COc1cc2nccc(Oc3cc(C)c(NC(=O)OCC4CC4)cc3C)c2cc1OC [Example 381, Cyclopropylmethyl N-{4-[(6,7-dimethoxy-4-quinolyl)oxy]-2,5-dimethylphenyl}carbamate]	–	7.18	–	–
CCCC(CCC)OC(=O)N(C)c1ccc(Oc2ncnc3cc(OC)c(OC)cc23)cc1 [Example 493, 1-Propylbutyl N-{4-[(6,7-dimethoxy-4-quinazolinyl)oxy]phenyl}-N-methylcarbamate]	7.41	–	–	–
COc1cc2nccc(Oc3cc(C)c(NC(=O)Sc4ccc(Cl)cc4C)cc3C)c2cc1OC [Example 178, 4-Chloro-2-methylphenyl{4-[(6,7-dimethoxy-4-quinolyl)oxy]-2,5-dimethylanilino}methanethioate]	–	< 7.00	–	–
COc1ccc(C(=O)NC(=S)Nc2ccc(Oc3ccnc4cc(OC)c(OC)cc34)cc2Cl)cc1 [Example 1173, N-{2-Chloro-4-[(6,7-dimethoxy-4-quinolyl)oxy]phenyl}-N′-(4-methoxybenzoyl)thiourea]	< 7.00	–	–	–
CCN(C(=O)OCc1ccccc1C)c1ccc(Oc2ncnc3cc(OC)c(OC)cc23)cc1Cl [Example 486, 2-Methylbenzyl N-{2-chloro-4-[(6,7-dimethoxy-4-quinazolinyl)oxy]phenyl}-N-ethylcarbamate]	< 7.00	–	36	–
COc1cc2nccc(Oc3ccc(NC(=S)NC(=O)c4cc(C)cc(C)c4)cc3)c2cc1OC [Example 1129, N-{4-[(6,7-Dimethoxy-4-quinolyl)oxy]phenyl}-N′-(3 5-dimethylbenzoyl)thiourea]	< 7.00	–	–	48
